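Growth conditions: 96-well plates. Treatment: test compound, 48 hours, 5 concentrations. Analysis: linear interpolation between bracketing concentrations; unreached endpoints set to highest concentration. At the GI50, growth is halved. TGI denotes the concentration required for complete inhibition of growth.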
Legend:
Assay in all cases: growth of human tumour cells (NCI), 48 h
[1] = test system: SW-620 colon
[2] = test system: RPMI-8226 leukemia
[3] = test system: UACC-62 melanoma
[4] = test system: CAKI-1 renal
[5] = test system: EKVX NSCLC
[6] = test system: U251 CNS
[7] = test system: HL-60(TB) leukemia
[8] = test system: MALME-3M melanoma
[9] = test system: TK-10 renal
[10] = test system: SNB-75 CNS

| Structure (SMILES) | TGI [1] [µM] | TGI [2] [µM] | TGI [3] [µM] | TGI [4] [µM] | TGI [5] [µM] | TGI [6] [µM] | TGI [7] [µM] | TGI [8] [µM] | TGI [9] [µM] | TGI [10] [µM] | GI50 [1] [µM] | GI50 [2] [µM] | GI50 [3] [µM] | GI50 [4] [µM] | GI50 [5] [µM] | GI50 [6] [µM] | GI50 [7] [µM] | GI50 [8] [µM] | GI50 [9] [µM] | GI50 [10] [µM] |
| --- | --- | --- | --- | --- | --- | --- | --- | --- | --- | --- | --- | --- | --- | --- | --- | --- | --- | --- | --- | --- |
| C[N+](C)(C)CC1CCCCCCCCCCC1=O (stereo not given) | > 100 | > 100 | > 100 | > 100 | > 100 | > 100 | > 100 | > 100 | > 100 | > 100 | – | – | – | – | – | – | – | – | – | – |
| Cc1cc(S(=O)(=O)Nc2nnc(-c3ccccc3)c(-c3ccccc3)n2)c(SCC(N)=O)cc1Cl | > 100 | 86.6 | 56.2 | > 100 | > 100 | 78.4 | > 100 | > 100 | > 100 | > 100 | 41.5 | 30.9 | 24.6 | > 100 | > 100 | 31.1 | 53.3 | 30.2 | > 100 | > 100 |
| C[C@@H]1CC(=O)C2CCCC1C2=O (stereo not given in full) | > 100 | > 100 | > 100 | > 100 | > 100 | > 100 | > 100 | > 100 | > 100 | > 100 | – | – | – | – | – | – | – | – | – | – |
| CC1(C)C(=O)N(CCCCCCN2C(=O)C(C)(C)c3ccccc32)c2ccccc21 | 30.3 | 45.1 | 79.8 | > 100 | > 100 | > 100 | 19.7 | 75.8 | > 100 | > 100 | – | – | – | – | – | – | – | – | – | – |
| COc1cc2ncnc(Nc3ccc(C)c(O)c3)c2cc1OC | > 25 | > 25 | > 25 | > 17.5 | > 25 | > 25 | > 25 | > 25 | 12 | > 24 | > 25 | > 25 | > 25 | 1.99 | 6.3 | 15.8 | > 25 | > 25 | 3.62 | 4.9 |
| NS(=O)(=O)c1ccc(N=Nc2c(O)[nH]c3ccc(-c4cnco4)cc23)cc1 | > 25 | > 25 | > 25 | > 25 | > 25 | > 25 | > 25 | > 25 | > 25 | > 25 | 9.91 | > 25 | > 25 | > 25 | > 25 | > 25 | > 25 | > 25 | > 25 | 10.1 |
| O=C(N/N=C/c1ccccc1)c1c(-c2cccnc2)cnc2ccccc12 | > 100 | > 100 | > 100 | > 100 | > 100 | > 100 | > 100 | > 100 | > 100 | > 100 | – | – | – | – | – | – | – | – | – | – |
| COc1ccc(C(=O)C(C(=O)CCC(=O)Nc2cccc(Cl)c2)c2ccc(OC)cc2)cc1 (stereo not given) | > 100 | > 100 | > 100 | > 100 | > 100 | > 100 | > 100 | > 100 | > 100 | > 100 | – | – | – | – | – | – | – | – | – | – |
| COc1ccccc1CCc1cc(OC)c(OC)c(OC)c1 | > 100 | 68.8 | > 100 | > 100 | > 100 | > 100 | 39.3 | > 100 | > 100 | > 100 | – | – | – | – | – | – | – | – | – | – |
| C=C1C(=O)O[C@@H]2/C=C(\C)CC/C=C(/COC(C)=O)C[C@@H](OC(C)=O)[C@@H]12 | 15.4 | > 41.7 | 26.4 | 20.2 | 25.8 | 36.7 | 8.52 | 8.85 | 23.2 | > 100 | – | – | – | – | – | – | – | – | – | – |
